# According to patent US9034812B2, “Compositions and methods for treating biofilms” (Ohio University, priority 2011, dated 2015):
# Tests used:
# [1] = tested on: D. vulgaris (ATCC 7757) SRB biofilm; assay: Prevention of SRB biofilm establishment (Example 2): sessile cell count (MPN) and SEM; type: cell-based, Desulfovibrio vulgaris; conditions: 100 ppm, alone, 7 days; for Sessile SRB cells on coupon (SEM), biofilm prevention: full-strength medium
# Description: D. vulgaris (ATCC 7757), a common SRB strain, was used in this example. Before inoculation, the culture media were autoclave sterilized and then sparged with filter-sterilized nitrogen for at least 45 minutes to remove dissolved oxygen. SRB growth was carried out in 125 ml anaerobic vials (Catalog No. 223748, Wheaton Industries Inc., Millville, N.J., USA) filled with 100 ml culture medium. In the test, 1 ml SRB seed culture was used to inoculate each anaerobic vial to achieve an SRB concentration of 10^6 cells/ml right after inoculation. The full-strength ATCC 1249 medium with 200 ppm Fe^2+ was used to grow SRB biofilm on coupon surfaces.
# It was neutralized to pH 7.0 by adding a sodium hydroxide solution. Coin shaped C1018 carbon steel coupons with a top exposed surface area of 1.12 cm^2 were used as substratum for SRB growth. The side and bottom surfaces were coated with inert Teflon. The top surface was polished sequentially by 200, 400, and 600 grit abrasive papers. Nitrogen sparging was used to remove dissolved oxygen in all liquids and to provide an anaerobic environment in a glove box. 100 ppm L-cysteine (Fisher Scientific, Pittsburgh, Pa., USA) was added to the culture media as an oxygen scavenger to mitigate any possible oxygen leak.
# One milliliter of SRB seed culture was added at the beginning of the tests and the vials were sealed and incubated at 37° C. without shaking. After 7 days, the coupons were taken out and examined for sessile SRB cells.
# (§1) The procedure to prepare a coupon for SEM observation of a biofilm on a coupon surface was described by Wen et al., Inter. Biodeter. Biodegr., (2009), 63:1102-1106. […] Thus, an SEM image was taken after searching for a spot with the most sessile cells. The cells seen in the SEM images should not be used to count the sessile cells because of uneven distribution. Instead, the Most Probable Number (MPN) method was used to enumerate sessile cells. SEM images could be used as qualitative visual confirmation of biofilm removal.
# (§2) Viable D. vulgaris cells can be seen as motile cells under a light microscope at 400×. Thus they can be counted using a hemocytometer. However, this method has a detection limit of 5×10^4 cells/ml minimum at 400× magnification. It is a standard practice to enumerate very low cell counts using the semi-quantitative most probable number (MPN) method with a liquid culture medium or a solid medium. The accuracy of MPN is typically 1 log in cell numbers. Thus, it takes at least a 2-log reduction to assure the efficacy of a biocide system. In this example, the sessile cells on a coupon were scraped and collected in a test tube by using the brush-like dipstick that was part of an SRB test kit (Sani-Check® Product #100 from Biosan Laboratories, Warren, Mich., USA). The dipstick was then soaked in 10 ml sterilized distilled water and vortexed for 30 s. Finally, the dipstick was inserted into the test kit's vial containing a solid SRB culture medium. The SRB sessile cell concentration was based on how long it took for the black color (FeS) to appear in the medium around the dipstick. The tests were repeated three separate times. Each time, two coupons were used for sessile SRB cell counting.
# [2] = tested on: mature D. vulgaris (ATCC 7757) SRB biofilm; assay: Removal of established SRB biofilm, 1-h and 3-h simulated slug treatment (Example 2); type: cell-based, Desulfovibrio vulgaris; conditions: alone
# Description: The full-strength ATCC 1249 medium was used to grow SRB biofilms on coupon surfaces first. […] In the anaerobic chamber, the coupons were taken out and rinsed with phosphate buffered saline (PBS) buffer to remove loose planktonic cells. The coupons were then placed into petri dishes containing treatment chemicals in a water solution. Some coupons were treated for 1 h and some for 3 h. This simulated slug treatment with a contact time lasting 1 and 3 h, respectively, as in the situation when a biocide slug flows inside a pipeline. Flow effect was not considered here. Exposing SRB cells on a coupon from the ATCC 1249 medium to a water solution lacking salt ions might cause osmotic shock that could interfere with the biocide efficacy evaluation. Instead of using PBS buffer commonly used in cell cultures, two salts in the original medium, MgSO4 and (NH4)2Fe(SO4)2, were added to the 1 and 3-h treatment solutions at ¼ of their corresponding concentrations in the full-strength ATCC 1249 medium. The treated coupons were then removed and examined for sessile SRB cells. The diluted medium was used here to simulate the residual nutrients retained by the local biofilms when the bulk pipeline or tank fluid is displaced by the biocide solution during a field treatment.
# as §1, §2
# [3] = tested on: D. vulgaris (ATCC 7757) SRB biofilm; assay: Prevention of SRB biofilm establishment on carbon steel coupons (Example 1): sessile cell count and SEM; type: cell-based, Desulfovibrio vulgaris; conditions: alone; for Sessile SRB cells on coupon surface (SEM), biofilm prevention: 7-day coupons
# Description: D. vulgaris (ATCC 7757), a laboratory SRB strain, was cultured in ATCC 1249 medium. Quarter strength medium with only four key ingredients, i.e., MgSO4, sodium lactate, Fe(NH4)2(SO4)2 and yeast extract at concentrations ¼ of those in the full ATCC 1249 medium was also used to simulate a less nutritious environment. […] SRB culture media were sterilized in an autoclave and then deoxygenated using N2 (filter sterilized) sparging. SRB cells were enumerated using an SRB test kit (Sani-Check® Product #100, Biosan Laboratories, Warren, Mich., USA). […] Below this cell count, it is hard to catch an individual cell under the light microscope. The Most Probable Number (MPN) enumeration method is a standard method to estimate very low cell counts. MPN succeeds by growing the cells first and correlating the cell counts with the appearance of black color (due to FeS produced by SRB). […] The SRB test kit used in this example is equivalent to an MPN method using a solid medium instead of a liquid medium.
# Anaerobic vials used in this example were 125 ml (Catalog No. 223748, Wheaton Industries Inc., 143 Millville, N.J., USA), each filled with 100 ml of culture medium. A glovebox filled with filter-sterilized N2 provided an anaerobic environment. To mitigate any possible oxygen leaks, 100 ppm L-cysteine (Fisher Scientific, Pittsburgh, Pa., USA), an oxygen scavenger, was added to the culture media. Thin disk shaped C1018 carbon steel coupons with a top disk surface area of 1.12 cm^2 were polished with 200, 400, and 600 grit abrasive papers progressively. Only the top surface of each coupon was exposed to the culture medium. The rest of the surfaces were coated with inert Teflon. After polishing, the coupons were weighed. The coupons were cleaned using isopropanol and then dried under UV light for 15 minutes.
# Three duplicate coupons and 1 ml of a 3-day old SRB seed culture were added to each anaerobic vial. The initial SRB cell concentration in each vial immediately after inoculation was approximately 10^6 cells/ml. After adding treatment chemical(s) following inoculation, the vials were sealed and then incubated at 37° C. After 7 days of incubation, the biofilm on a coupon surface was observed under SEM. The procedure to prepare a coupon for SEM observation of a biofilm was described by Wen et al., Inter. […] Au coating of the biofilm covered coupon was necessary for SEM because the biofilm was not conductive. An SEM image was taken for the spot with most sessile cells after screening three duplicate coupons. A special control coupon was inserted in a vial containing the culture medium without biocide treatment and incubated without inoculation. This abiotic control would indicate yellow rust if an oxygen leak occurred. Its surface was also scanned for sessile cells under SEM for possible microbial contamination. Care was also taken to identify sessile cells that looked different from D. vulgaris during biofilm observation under SEM, which would indicate microbial contamination.
# To obtain the average sessile cell density on a coupon surface, the sessile cells were first scraped off from the surface of a duplicate coupon onto a brush-like dipstick of the SRB test kit handled with sterile tweezers. The dipstick was wetted with deoxygenated water before scraping. Most of the sessile cells were collected by the dipstick. […]
# [4] = tested on: D. vulgaris (ATCC 7757) SRB biofilm; assay: Mitigation of MIC pitting and weight loss of C1018 carbon steel coupons (Example 1); parameters: species or system Desulfovibrio vulgaris; conditions: 50 ppm, alone; 7 days
# From the text: The coupons for SEM used in above in “Prevention of Biofilm Establishment” were reused to observe the MIC pitting after their biofilms and Au coating were removed using the Clark's solution. Coupon weight loss data were obtained from another duplicate coupon in each vial. The coupon surface was cleaned to remove biofilms and mineral deposits using the Clark's solution before weighing.
compound,measurement,setting,value
N[C@H](Cc1ccc(O)cc1)C(=O)O [D-tyrosine],Reduction of SRB sessile cells versus untreated control,[1],1 log
same,"Sessile SRB cells on coupon (SEM), biofilm prevention",[1],completely ineffective
same,"Sessile SRB cells on coupon (SEM), 1-h shock treatment","[2]; 100 ppm, 1 h",left many sessile cells on the coupon surface
same,Sessile cell count for 3-h treatment,[2]; 100 ppm,≧10^5 cells/cm^2
same,"Sessile SRB cells on coupon surface (SEM), biofilm prevention",[3]; 10 ppm,not effective in preventing SRB biofilm formation
N[C@H](Cc1c[nH]c2ccccc12)C(=O)O [D-tryptophan],"Sessile SRB cells on coupon surface (SEM), biofilm prevention",[3]; 100 ppm,ineffective
CSCC[C@@H](N)C(=O)O [D-methionine],"Sessile SRB cells on coupon surface (SEM), biofilm prevention",[3]; 500 ppm,had sessile SRB cells on their surfaces
Tetrakis hydroxymethyl phosphonium sulfate [THPS],Kill of SRB sessile cells,[1],99.999%
same,Reduction of SRB sessile cells versus untreated control,[1],5 log
same,"Sessile SRB cells on coupon (SEM), biofilm prevention",[1],partially effective
same,Reduction of sessile SRB concentration versus control,"[2]; 50 ppm, 1 h",2 log
same,"Sessile SRB cells on coupon (SEM), 1-h shock treatment","[2]; 50 ppm, 1 h",numerous sessile SRB cells remained
same,Sessile cell count for 1-h treatment,"[2]; 50 ppm, 1 h",≧10^4 cells/cm^2
same,Sessile cell count for 3-h treatment,[2]; 50 ppm,≧10^3 cells/cm^2
same,"Sessile SRB cells on coupon surface (SEM), biofilm prevention",[3]; 100 ppm,had sessile SRB cells on their surfaces
same,Normalized coupon weight loss (average),[4],0.65 mg/cm^2
CC(C)C[C@@H](N)C(=O)O [D-leucine],Sessile cell count,"[3]; 500 ppm, after 7 days, ATCC 1249 medium",≧10^5 cells/cm^2
